In article PMC12040169 (PLOS Biology, 2025):

Assay: in vitro
Details: human, hela cells, % viability

| Compound | viability at 28.5 h, 10 µM |
| --- | --- |
| Oc1ccc(-n2ncc(-c3ccc(F)cc3F)n2)cc1 [CBK112736] | 98% |
| Fc1ccc(-c2cnn(-c3ccc(OC(F)(F)F)cc3)n2)c(F)c1 [CBK112740] | 99.1% |
| COc1ccc(-c2cnn(-c3ccc(OC)cc3)n2)cc1 [CBK112745] | 106% |
| COc1ccc(-c2cnn(-c3ccccc3CN(C)C)n2)cc1 [CBK112762] | 106% |
| CSc1ccc(-n2ncc(-c3ccc(Cl)cc3)n2)cc1 [CBK112782] | 84% |
| COc1ccc(-n2ncc(-c3cccnc3)n2)cn1 [CBK112827] | 96.7% |
| Clc1ccc(-n2ncc(-c3ccsc3)n2)cc1Cl [CBK112843] | 96.3% |
| CN(C)c1ccc(-n2ncc(-c3ccsc3)n2)cc1 [CBK112845] | 86.8% |
| NC(=O)c1ccc(-n2ncc(-c3ccsc3)n2)cc1 [CBK112858] | 98.4% |
| O=C(O)c1cccc(-n2ncc(-c3ccsc3)n2)c1 [CBK112859] | 100% |
| c1cc(-c2cnn(-c3ccc4c(c3)CCO4)n2)cs1 [CBK112861] | 93.4% |
| COc1ccc(-n2ncc(CN(C)C)n2)cc1OC [CBK112862] | 101% |
| CN(C)Cc1cnn(-c2ccc(Oc3ccccc3)cc2)n1 [CBK112865] | 100% |
| CCOC(=O)c1cccc(-n2ncc(CN(C)C)n2)c1 [CBK112866] | 91.4% |
| CN(C)Cc1ccccc1-n1ncc(CN2CCS(=O)(=O)CC2)n1 [CBK112877] | 107% |
| CCOC(=O)c1cccc(-n2ncc(-c3ccc(F)cc3)n2)c1 [CBK112908] | 94.1% |
| OCc1ccc(-n2ncc(-c3ccc(Br)cc3F)n2)cc1 [CBK112920] | 96.6% |
| CN(C)Cc1ccccc1-n1ncc(-c2ccc(Br)cc2F)n1 [CBK112924] | 90.9% |
| Fc1cc(Br)ccc1-c1cnn(-c2ccccc2)n1 [CBK112925] | 103% |
| COc1ccc(-n2cc(-c3cccc(C(F)(F)F)c3)nn2)cc1OC [CBK112933] | 94.9% |
| FC(F)(F)c1cccc(-c2cn(-c3ccsc3)nn2)c1 [CBK112937] | 88.5% |
| CC(=O)Nc1cccc(-n2cc(-c3cccc(C(F)(F)F)c3)nn2)c1 [CBK112938] | 91.2% |
| O=C(O)c1cccc(-n2cc(-c3cccc(C(F)(F)F)c3)nn2)c1 [CBK112949] | 114% |
| CSc1ccc(-n2cc(-c3ccc(F)cc3F)nn2)cc1 [CBK112979] | 99.3% |
| OCc1ccc(-n2cc(-c3ccc(F)cc3F)nn2)cc1 [CBK112982] | 89.2% |

| Compound | viability at 28.5 h, 10 µM |
| --- | --- |
| Fc1ccc(-c2cn(-c3cncnc3)nn2)c(F)c1 [CBK112989] | 96.4% |
| Cc1ccc(Cl)cc1-n1cc(-c2ccc(F)cc2F)nn1 [CBK112995] | 89.2% |
| O=C(O)c1cccc(-n2cc(-c3ccc(F)cc3F)nn2)c1 [CBK112998] | 95.9% |
| COc1ccc(-c2cn(-c3cc(Cl)ccc3C)nn2)cc1 [CBK113023] | 58.6% |
| COc1ccc(-c2cn(-c3ccc4c(c3)CCO4)nn2)cc1 [CBK113027] | 88.5% |
| CC(C)(C)c1ccc(-n2cc(-c3ccc(Cl)cc3)nn2)cc1 [CBK113031] | 102% |
| FC(F)(F)c1cccc(-n2cc(-c3cccnc3)nn2)c1 [CBK113053] | 86% |
| CN(C)Cc1ccccc1-n1cc(-c2cccnc2)nn1 [CBK113064] | 92.5% |
| FC(F)(F)Oc1ccc(-n2cc(-c3ccsc3)nn2)cc1 [CBK113096] | 92.7% |
| O=S1(=O)CCN(Cc2cn(-c3ccccc3)nn2)CC1 [CBK113103] | 88.9% |
| O=S1(=O)CCN(Cc2cn(-c3ccc(-c4ccccc4)cc3)nn2)CC1 [CBK113105] | 95.4% |
| COc1ccc(-n2cc(-c3ccncc3)nn2)cc1OC [CBK113106] | 109% |
| COc1ccc(-n2cc(-c3ccc(F)cc3)nn2)cc1 [CBK113111] | 102% |
| CC(C)(C)c1ccc(-n2cc(-c3ccc(F)cc3)nn2)cc1 [CBK113112] | 103% |
| Fc1ccc(-c2cn(-c3ccc4c(c3)CCO4)nn2)cc1 [CBK113132] | 97% |
| COc1ccc(-n2cc(-c3ccccn3)nn2)cc1OC [CBK113133] | 103% |
| CCc1ccc(-n2cc(-c3ccccn3)nn2)cc1 [CBK113137] | 106% |
| Fc1cc(Br)ccc1-c1cn(-c2ccc3[nH]ccc3c2)nn1 [CBK113146] | 91.2% |
| Fc1cc(Br)ccc1-c1cn(-c2ccccc2)nn1 [CBK113148] | 80.7% |
| CCOC(=O)c1cccc(-n2cc(-c3ccc(Br)cc3F)nn2)c1 [CBK113153] | 92.3% |
| Cc1cc(C)n(S(=O)(=O)c2cc(C(=O)O)c(Cl)cc2Cl)n1 [CBK113170] | 86.3% |
| NS(=O)(=O)c1ccccc1Cl [CBK113172] | 98.1% |
| CC(C)(C)c1ccc(C(=O)Nc2nsc(-c3ccc(Cl)cc3)n2)cc1 [CBK113176] | 89.6% |
| NS(=O)(=O)c1cc(C(=O)O)ccc1F [CBK113180] | 81.1% |
| COC(=O)c1cc(S(N)(=O)=O)c(C)o1 [CBK113185] | 104% |

| Compound | viability at 28.5 h, 10 µM |
| --- | --- |
| O=C1c2ccccc2CN1c1ccccc1 [CBK113189] | 95.9% |
| O=C1c2ccccc2CN1c1cccc2ccccc12 [CBK113190] | 85.3% |
| CCOC(=O)Cn1nc(C)c(Cc2c(Cl)cccc2Cl)c1CC [CBK113223] | 85% |
| O=C(O)c1cc(S(=O)(=O)Nc2ccc(O)cc2)c(Cl)cc1Cl [CBK113231] | 86.8% |
| O=C(Nc1nsc(-c2ccccc2)n1)c1ccc(F)cc1 [CBK113232] | 87.8% |
| O=C1c2ccccc2CN1c1ccc(OC(F)(F)F)cc1 [CBK113237] | 91.3% |
| Cc1ccc(N2C(=O)c3ccccc3C2Nc2ccccc2)nc1 (stereo not shown) [CBK113238] | 101% |
| Cc1ccc(N2C(=O)c3ccccc3C2=O)cc1 [CBK113243] | 95.7% |
| CN1CCN(CCCCC2(C)SC(NC3CCCCCC3)=NC2=O)CC1 (stereo not shown) [CBK113259] | 93.3% |
| Cc1c(Cc2c(Cl)cccc2Cl)c(=O)n(C)n1C [CBK113274] | 97.2% |
| CCCc1n[nH]c(Cc2c(Cl)cccc2Cl)c1C(=O)OCC [CBK113275] | 88.9% |
| CC(C)Nc1nc2ccccc2nc1OC1CCN(C)C1 (stereo not shown) [CBK113283] | 81.1% |
| FC(F)(F)c1ccnc(OCCN2CCOCC2)c1 [CBK113286] | 97.1% |
| FC(F)(F)c1cccc(OCCN2CCOCC2)n1 [CBK113289] | 105% |
| FC(F)(F)c1cccc(OC2CCCNC2)n1 (stereo not shown) [CBK113290] | 93.2% |
| FC(F)(F)c1ccnc(OCCN2CCNCC2)n1 [CBK113297] | 97.5% |
| FC(F)(F)c1nc2ccccc2nc1OCCN1CCNCC1 [CBK113302] | 99.4% |
| CC(C)Oc1cncc(Cl)n1 [CBK113321] | 106% |
| c1ccc2oc(-c3cc4ccccc4o3)cc2c1 [CBK113363] | 113% |
| Clc1nc2ccccc2nc1OCCOc1ccccc1 [CBK113367] | 108% |
| CC(C)Nc1nc2ccccc2nc1OCCCN(C)C [CBK113416] | 108% |
| CC(C)Nc1nc2cc(Cl)c(Cl)cc2nc1OCCN(C)C [CBK113419] | 103% |
| c1ncc(N2CCCC2)nc1OCCN1CCOCC1 [CBK113430] | 89.1% |
| Clc1cc2nc(OC3CCCNC3)c(N3CCCC3)nc2cc1Cl (stereo not shown) [CBK113454] | 108% |
| FC(F)(F)c1cccnc1OCCN1CCOCC1 [CBK113456] | 101% |

| Compound | viability at 28.5 h, 10 µM |
| --- | --- |
| CN1CCN(C)C(COc2ncccc2C(F)(F)F)C1 (stereo not shown) [CBK113458] | 90.5% |
| CCN(CC)CCCOC1(C)SC(NC2CCCCCC2)=NC1=O (stereo not shown) [CBK113510] | 86.5% |
| Fc1ccc(OCCCCCN2CCC3(CC2)OCCc2c3[nH]c3ccccc23)cc1 [CBK113516T] | 2.48% |
| CCCc1n[nH]c(-c2cccc(C)c2C)c1C(=O)OCC [CBK113545] | 106% |
| CCCc1n[nH]c(-c2c(F)cccc2F)c1C(=O)OCC [CBK113546] | 92.7% |
| COc1cccc(CCOc2cncc(Cl)n2)c1 [CBK113556] | 87.3% |
| CS(=O)(=O)c1ccc(Nc2ncnc(N3CCC(Sc4ccccc4)CC3)c2[N+](=O)[O-])cc1 [CBK113567] | 92.8% |
| OC1CCCn2c1nc1cc(Cl)ccc12 (stereo not shown) [CBK113625] | 72.4% |
| COc1ccc(C)cc1S(=O)(=O)N1CCc2c(CN3CCN(C)CC3)cccc21 [CBK113628T] | 115% |
| COc1ccc(C)cc1S(=O)(=O)N1CCc2c(CN3CCOCC3)cccc21 [CBK113630T] | 86.8% |
| N#Cc1ccc(-c2cnc(N)c(-c3ccccc3Cl)n2)cc1 [CBK113660] | 88.5% |
| COc1ccc(N2Cc3ccccc3C2=O)cc1OC [CBK113666] | 95.5% |
| Cn1ncc2c1C(=O)NC1c3ccccc3C(=O)N21 (stereo not shown) [CBK113668] | 94.3% |
| O=c1sn(-c2ccccc2C(F)(F)F)c(=O)n1CC1CC1 [CBK113675] | 82.8% |
| Cc1n[nH]cc1-c1nsc(Nc2ccccc2)n1 [CBK113680] | 92.2% |
| O=C(O)c1cc(S(=O)(=O)Nc2ccc(F)cc2)c(Cl)cc1Cl [CBK113685] | 84.9% |
| Cn1c(C(=O)O)ccc1S(=O)(=O)NCc1ccco1 [CBK113686] | 105% |
| Cc1cccc(NC(=O)c2ccccc2NS(=O)(=O)c2ccc(F)c(F)c2)c1 [CBK113810] | 115% |
| O=C(NCc1ccccc1)c1ccccc1NS(=O)(=O)c1ccccc1F [CBK113881] | 106% |
| CCCN(CCC)C(=O)c1ccc(-n2nc(C(=O)OCC)c(Br)c2C)cc1 [CBK114363] | 109% |
| Cc1nnc(-c2cc(CC(C)C)n(-c3cccc(C(=O)N4CC=CCC4)c3)n2)o1 [CBK114630] | 91.6% |
| Cc1nnc(-c2cc(CCC(C)C)n(-c3cccc(C(=O)N4CCCCC4)c3)n2)o1 [CBK114689] | 95.4% |
